Reference: US20200172483A1, “HETEROCYCLIC SMALL MOLECULE MODULATORS OF HUMAN STING” (Curadev Pharma Limited, priority 2017, published 2020)
pEC50: −log10 of the molar value.

Biological target: T1, WT/R232 STING protein (Homo sapiens, UniProt Q86WV6, H232R)
T1 construct: host or cells: HEK293T
Experiment: Luciferase reporter assay in HEK293T-hSTING-Luciferase cells (R232)
Type: cell-based
Conditions: 20 hr stimulation, EC50 range
Summary of the method: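 Clonal HEK293T cells stably expressing human STING R232 plus an ISRE/ISG54-driven secreted luciferase reporter, stimulated with compounds for 20 hr. Luciferase in supernatant read by luminescence; activity given as fold-induction over baseline.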

T1 sequence (Q86WV6 whole entry H232R): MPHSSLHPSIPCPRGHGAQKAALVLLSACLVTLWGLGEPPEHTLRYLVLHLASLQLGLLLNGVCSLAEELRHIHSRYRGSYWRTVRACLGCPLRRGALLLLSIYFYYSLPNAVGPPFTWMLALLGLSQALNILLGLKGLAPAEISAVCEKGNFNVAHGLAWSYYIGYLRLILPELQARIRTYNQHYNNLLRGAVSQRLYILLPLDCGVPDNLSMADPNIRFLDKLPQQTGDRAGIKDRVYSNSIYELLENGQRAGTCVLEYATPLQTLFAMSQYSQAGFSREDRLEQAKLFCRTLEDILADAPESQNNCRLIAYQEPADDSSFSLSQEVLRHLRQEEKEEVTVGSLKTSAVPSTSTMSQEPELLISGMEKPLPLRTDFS

Compound	pEC50
Cc1ncc(CN2C(=O)C(C)(C)c3ccc(C(=O)NCc4c(F)cc(F)cc4F)cc32)o1 [Example 128, 3,3-dimethyl-1-((2-methyloxazol-5-yl)methyl)-2-oxo-N-(2,4,6-trifluorobenzyl)indoline-6-carboxamide]	< 5.00
CC1(CO)C(=O)N(Cc2cc(F)cc(F)c2)c2cc(C(=O)NCc3ccc(F)cc3F)ccc21 (centres unmarked) [Example 176, N-(2,4-difluorobenzyl)-1-(3,5-difluorobenzyl)-3-(hydroxymethyl)-3-methyl-2-oxoindoline-6-carboxamide]	< 5.00
CC1(C)C(=O)N(Cc2ccnc(F)c2)c2cc(C(=O)NCc3c(F)cc(F)cc3F)ccc21 [Example 49, 1-((2-fluoropyridin-4-yl)methyl)-3,3-dimethyl-2-oxo-N-(2,4,6-trifluorobenzyl)indoline-6-carboxamide]	5.00 to 6.00
CC1(C)C(=O)N(Cc2ccccc2)c2cc(C(=O)NCc3ccccc3)ccc21 [Example 10, N,1-dibenzyl-3,3-dimethyl-2-oxoindoline-6-carboxamide]	5.00 to 6.00
CC1(C)C(=O)N(Cc2cccc(C(N)=O)c2)c2cc(C(=O)NCc3ccc(F)cc3F)ccc21 [Example 38, 1-(3-carbamoylbenzyl)-N-(2,4-difluorobenzyl)-3,3-dimethyl-2-oxoindoline-6-carboxamide]	5.00 to 6.00
Cc1ccc(-c2nc(CN3C(=O)C(C)(C)c4ccc(C(=O)NCc5c(F)cc(F)cc5F)cc43)c(C)o2)cc1 [Example 129, 3,3-dimethyl-1-((5-methyl-2-(p-tolyl)oxazol-4-yl)methyl)-2-oxo-N-(2,4,6-trifluorobenzyl)indoline-6-carboxamide]	< 5.00
CC1(C)C(=O)N(Cc2c(F)ccc(O)c2Cl)c2cc(C(=O)NCc3c(F)cc(F)cc3F)ccc21 [Example 67, 1-(2-chloro-6-fluoro-3-hydroxybenzyl)-3,3-dimethyl-2-oxo-N-(2,4,6-trifluorobenzyl)indoline-6-carboxamide]	≥ 6.00
O=C(NCc1c(F)cc(F)cc1F)c1ccc2c(c1)N(Cc1c(F)cccc1Cl)C(=O)C2(O)c1ccccc1 (centres unmarked) [Example 160, 1-(2-chloro-6-fluorobenzyl)-3-hydroxy-2-oxo-3-phenyl-N-(2,4,6-trifluorobenzyl)indoline-6-carboxamide]	< 5.00
CC1(C)C(=O)N(Cc2cc(F)cc(F)c2)c2cc(C(=O)NCc3nc4ccccc4s3)ccc21 [Example 40, N-(benzo[d]thiazol-2-ylmethyl)-1-(3,5-difluorobenzyl)-3,3-dimethyl-2-oxoindoline-6-carboxamide]	5.00 to 6.00

Second part, the molecule after the results:

pEC50	Compound
< 5.00	Cc1cccc(F)c1CN1C(=O)C(C)(C)c2ncc(C(=O)NCc3ccc(F)cc3)cc21 [Example 197, 1-(2-fluoro-6-methylbenzyl)-N-(4-fluorobenzyl)-3,3-dimethyl-2-oxo-2,3-dihydro-1H-pyrrolo[3,2-b]pyridine-6-carboxamide]
< 5.00	CC1(C)C(=O)N(Cc2cc(F)cc(F)c2)c2nc(C(=O)NCc3cc4ccncc4o3)ccc21 [Example 187, 1-(3,5-difluorobenzyl)-N-(furo[2,3-c]pyridin-2-ylmethyl)-3,3-dimethyl-2-oxo-2,3-dihydro-1H-pyrrolo[2,3-b]pyridine-6-carboxamide]
5.00 to 6.00	Cc1cc(CN2C(=O)C(C)(C)c3ccc(C(=O)NCc4c(F)cc(F)cc4F)nc32)ccn1 [Example 185, 3,3-dimethyl-1-((2-methylpyridin-4-yl)methyl)-2-oxo-N-(2,4,6-trifluorobenzyl)-2,3-dihydro-1H-pyrrolo[2,3-b]pyridine-6-carboxamide]
5.00 to 6.00	CC1(C)C(=O)N(Cc2ccc(F)c(F)c2)c2cc(C(=O)NCc3ccco3)ccc21 [Example 46, 1-(3,4-difluorobenzyl)-N-(furan-2-ylmethyl)-3,3-dimethyl-2-oxoindoline-6-carboxamide]
5.00 to 6.00	Cn1ncc2cccc(CN3C(=O)C(C)(C)c4ccc(C(=O)NCc5c(F)cc(F)cc5F)cc43)c21 [Example 96, 3,3-dimethyl-1-((1-methyl-1H-indazol-7-yl)methyl)-2-oxo-N-(2,4,6-trifluorobenzyl)indoline-6-carboxamide]
